# Read-outs that look alike come from different tables or passages of the source.
# Tests used:
# [1] = cited from earlier work
# [2] = Solubility of flavoxate in various solvents at 20° C.; format: physicochemical
# Experimental: (§1) Solubility of flavoxate hydrochloride was determined in various aqueous buffers, water, ethanol, acetone and ethyl ether at 20° C. and at ambient temperature (20 to 25° C.).
# [3] = pH-dependent aqueous solubility at ambient temperature; format: physicochemical; settings: 20 °C
# Experimental: as §1
# [4] = Flow properties of drug powder; format: physicochemical
# Experimental: Tapped density • 2. Bulk density • 3. Compressibility Index and Hausner ratio • 4. Angle of repose Solubility: Flowability measures how uniformly the powder flows from the hopper into the tablet die and is an index of how well the tablet die will be filled to a constant volume. […] Similarly, the angle between the freestanding surface of a powder heap and horizontal plane is the angle of repose. […] flowability was less and could be improved with addition of lubricants during tablet-making. Results of tests to determine the Angle of repose (35°), Carr's index (33.3%), bulk density (0.236 gm/ml) and tapped density ([…]) indicate that the drug powder had poor flow properties.
# [5] = Drug-excipient compatibility (Total RS); format: physicochemical
# Experimental: Experiments were conducted to ascertain compatibility of the drug with commonly used excipients.
compound,measurement,setting,value
"Cc1c(-c2ccccc2)oc2c(C(=O)O)cccc2c1=O [MFCA, 3-methylflavone-8-carboxylic acid]",half-life t½,[1]; MFCA,3.5 h
"Cc1c(-c2ccccc2)oc2c(C(=O)OCCN3CCCCC3)cccc2c1=O.Cl [flavoxate, 2-piperidinoethyl-3-methylflavone 8-carboxylate hydrochloride]",Solubility % w/v,[2]; Acetone,Insoluble
same,Solubility % w/v,[2]; Chloroform,2.50 % w/v
same,Solubility % w/v,[2]; Ethanol,0.20 % w/v
same,Solubility % w/v,[2]; Ethyl Ether,Insoluble
same,Solubility % w/v,[2]; Methanol,0.90 % w/v
same,solubility,"[2]; Water, read-out: Solubility % w/v",7500 µg/mL
same,solubility,"[3]; aqueous buffer, 0.05N Phosphate Buffer, pH 2.5, 20 to 25° C.",7640 µg/mL
same,solubility,"[3]; aqueous buffer, 0.05N Phosphate Buffer, pH 4.5, 20 to 25° C.",13700 µg/mL
same,solubility,"[3]; aqueous buffer, 0.05N Phosphate Buffer, pH 6.0, 20 to 25° C.",15400 µg/mL
same,solubility,"[3]; aqueous buffer, 0.05N Phosphate Buffer, pH 6.8, 20 to 25° C.",6170 µg/mL
same,solubility,"[3]; aqueous buffer, 0.05N Phosphate Buffer, pH 7.2, 20 to 25° C.",1040 µg/mL
same,solubility,"[3]; aqueous buffer, 0.05N Phosphate Buffer, pH 7.5, 20 to 25° C.",580 µg/mL
same,solubility,"[3]; simulated gastric fluid, 0.1N HCl, pH 1.2, 20 to 25° C.",570 µg/mL
same,solubility,"[3]; Water, pH 5.7, 20 to 25° C.",11300 µg/mL
same,duration of therapeutic activity,[1]; in vivo,5 to 6 h
same,free flavoxate in urine,[1]; in vivo,No free flavoxate was found
same,time of peak level of MFCA,[1]; oral 400 mg dose,around two hours
same,time of peak level of MFCA,[1]; oral administration of 200 mg dose,30 to 60 min
same,dose excreted as MFCA within 12 hours,"[1]; oral, within 12 hours",About 50%
same,dose excreted as MFCA,"[1]; urine, 24 hours, intravenous",47%
same,Angle of repose,[4],35 °
same,Carr's index,[4],33.3%
same,bulk density,[4],0.236 gm/ml
same,tapped density,[4],0.355 g/mL
same,Total R.S. (%) 30 D/40° C./75% RH*,[5]; 30 days at 40° C. and 75% relative humidity,0.04%
same,Total R.S. (%) Initial,[5]; initial,0.02%

# From patent publication US11992558B2, “Controlled release formulation comprising flavoxate” (priority 2018, dated 2024)
